According to paper PMC12373846, “Hemoglobin as a pseudoperoxidase and drug target for oxidative stress-related diseases” (Signal Transduction and Targeted Therapy, 2025):

Assays:
[1] = target: T1, HRP (Armoracia rusticana, UniProt P00433); experiment: Amplex Red H2O2 assay (HRP-dependent); assay type: biochemical, horseradish; conditions: Fig. 1b; read-out: EC50, dose-response in Amplex Red assay
T1 sequence (P00433 31-353): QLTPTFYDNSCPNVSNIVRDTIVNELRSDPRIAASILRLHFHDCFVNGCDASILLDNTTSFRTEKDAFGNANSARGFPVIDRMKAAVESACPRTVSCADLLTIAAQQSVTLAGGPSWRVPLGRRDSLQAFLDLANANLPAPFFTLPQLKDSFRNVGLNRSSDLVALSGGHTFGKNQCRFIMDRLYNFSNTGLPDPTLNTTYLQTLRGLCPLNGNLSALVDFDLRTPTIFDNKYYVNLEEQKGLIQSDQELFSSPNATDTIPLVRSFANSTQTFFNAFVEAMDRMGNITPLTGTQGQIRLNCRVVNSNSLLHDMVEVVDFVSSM
Experimental: Hb (Sigma‒Aldrich, H7379), H2O2 (Sigma‒Aldrich, H1009), and Amplex Red reagents (Invitrogen, A12222) were obtained for the study. A 4 μM H2O2 solution was prepared in 50 mM sodium phosphate buffer (pH 7.2). Then, 49 μl of this mixture was mixed with 1 μl of the test compound in DMSO or distilled water. The mixture was combined with an assay mixture of Amplex Red reagent (20 mM stock to 0.1 mM) and HRP (200 U/ml stock to 0.2 U/ml) and added to the wells at 50 μl/well. After a 60-min incubation at 37 °C, resorufin production was quantified via a microplate fluorescence reader (SpectraMax iD5, Molecular Devices) at ex/em = 535/580 nm. The H2O2-decomposing activity was estimated via the following equation: (sample fluorescence-blank fluorescence)/(control […]-blank fluorescence) × 100. For the ROS-Glo assay, the H2O2 substrate solution and ROS-Glo detection solution were prepared according to the manufacturer’s instructions. 10 μM H2O2 and drugs were prepared as in the Amplex Red assay, with HRP, Hb, CAT, or GPx added as needed. […] Luminescence was measured via iD5 microplate readers. The H2O2-decomposing activity was estimated via the following equation: (sample luminescence-blank luminescence)/(control luminescence-blank luminescence) × 100. The U/ml was calculated on the basis of the amount of H2O2 reduced by Hb during the reaction, using μg/ml and U/mg.

[2] = tested on: C57BL/6 mice; experiment: Blood H2O2 measurement after LPS; assay type: in vivo, mouse; conditions: LPS 6 h + KDS12025 3 mg/kg i.p.
Experimental: C57BL/6 mice were intraperitoneally (i.p.) injected with lipopolysaccharide (LPS) and sacrificed at 2, 6, and 24 h post-injection. Blood was collected from the heart using a syringe pre-treated with 0.5 M EGTA to prevent coagulation. Plasma was separated by centrifuging the collected blood at 1,500 × g for 10 min at 4 °C. H2O2 levels in the plasma were quantified using the Amplex Red assay according to the manufacturer’s instructions. The H2O2 levels peaked at 6 h post-LPS injection. Subsequently, KDS12025 (3 mg/kg/day) was intraperitoneally administered concurrently with LPS at the 6 h time point, and plasma H2O2 levels were measured to assess the effect of the compound.

[3] = tested on: A53T mice; experiment: Rotarod test, A53T PD mouse model; assay type: in vivo
Experimental: Stereotaxic injections were performed to deliver the AAV-CMV-A53T virus or PBS (control) into the right SNpc (AP, −3.2 mm; ML, −1.3 mm; DV, −4.0 mm from the bregma) of the mice. The injections were administered at a rate of 0.2 μl/min, with a total volume of 1 μl. The procedure was conducted under general anesthesia induced by 1% isoflurane.
The mice were habituated to the rotarod at speeds of 5, 10, and 15 rpm. Motor coordination and endurance were tested at 20 rpm for a maximum of 3 min. The latency to fall was recorded during the test to evaluate motor deficits associated with PD and the therapeutic effects of KDS12025.

[4] = tested on: aged C57BL/6J mice; experiment: Open field locomotor activity, aging mice; assay type: in vivo, mouse; conditions: 26 month

| EC50 [1] [nM] | Structure (SMILES) | plasma H2O2 level (Fig. S20r) [2] | rotarod latency to fall ([3]; A53T+KDS12025 1 mg/kg/day ad libitum, Fig. 4h) | rotarod latency to fall ([3]; A53T+shHbβ::CaMKII+KDS12025, Fig. 6q) | rotarod latency to fall ([3]; A53T+shHbβ::GFAP+KDS12025, Fig. 6q) | distance traveled (Fig. 7d) ([4]; 0.1mpk) | locomotor velocity (Fig. 7c) ([4]; 0.1mpk) | distance traveled (Fig. 7d) ([4]; 1mpk) | locomotor velocity (Fig. 7c) ([4]; 1mpk) |
| --- | --- | --- | --- | --- | --- | --- | --- | --- | --- |
| 1800 | O=C(O)c1cc(NCCc2ccc(C(F)(F)F)cc2)ccc1O [HTPEB, 2-hydroxy-5-[2-(4-trifluoromethyl-phenyl)-ethylamino]-benzoic acid, reference compound] |  |  |  |  |  |  |  |  |
|  | CNc1ccc(NCCc2ccccc2OC)cc1.Cl [KDS12025, N^1-(2-methoxyphenethyl)-N^4-methylbenzene-1,4-diamine hydrochloride salt] | Control (0.3325±0.02161, n=6), LPS-6hrs (1.295±0.05323, n=6), LPS-6hrs+KDS (0.7847±0.08078, n=6) One-way ANOVA with Tukey's multiple comparisons test, F(2,15) = 70.74, p < 0.001 Control vs. LPS-6hrs, p < 0.001; Control vs. LPS-6hrs+KDS, p < 0.001; LPS-6hrs vs. LPS-6hrs+KDS, p < 0.001 | Control (225.3±30.6, n=6), A53T (93.8±19.6, n=7), A53T+KDS12025 (223.8±23.5, n=8) One-way ANOVA with Tukey's multiple comparisons test, F(2,18) = 9.52, p = 0.002 Control vs. A53T, p = 0.005; Control vs. A53T+KDS12025, p > 0.99; A53T vs. A53T+KDS12025, p = 0.003 | 139.0±51.1 | 117.0±63.6 | 3262±203 | 5.42±0.34 | 3600±561 | 6.24±0.6 |
